Source: DBAASP
Converted amounts (≈) assume the structure as drawn. Values belong to the compound of their own block, whether it stands above or below them.

Key:
Assay in all cases: ≥ marks a high value that may be exact or a test limit, other limits are often not marked, values filed in µg/mL are converted to µM
[1] = test system: Bacillus subtilis ATCC 6633
[2] = test system: Escherichia coli ATCC 25922
[3] = test system: Klebsiella pneumoniae ATCC 700603
[4] = test system: Pseudomonas aeruginosa ATCC 27853
[5] = test system: Staphylococcus aureus ATCC 25923
[6] = test system: Staphylococcus epidermidis ATCC 12228
[7] = test system: Acinetobacter baumannii ATCC 19606
[8] = test system: Bacillus subtilis ATCC 23857
[9] = test system: Enterococcus faecalis ATCC 29212
[10] = test system: Candida albicans ATCC 90028
[11] = test system: Staphylococcus aureus NCTC 8325
Klebsiella pneumoniae = test system: Klebsiella pneumoniae
[12] = test system: Salmonella enterica subsp. enterica serovar Typhimurium ATCC 14028
Bacillus subtilis = test system: Bacillus subtilis
Escherichia coli = test system: Escherichia coli
Salmonella typhimurium = test system: Salmonella typhimurium
Staphylococcus aureus = test system: Staphylococcus aureus
[13] = test system: Candida albicans ATCC 10231
[14] = test system: Klebsiella pneumoniae ATCC 13883
Pseudomonas aeruginosa = test system: Pseudomonas aeruginosa
[15] = test system: Staphylococcus aureus ATCC 43300
[16] = test system: Staphylococcus epidermidis
Bacillus cereus = test system: Bacillus cereus
[17] = test system: Escherichia coli DH5alpha

MIC [1]: 1.6 µM (≈ 3.26 µg/mL) | MIC [2]: 1.6 µM (≈ 3.26 µg/mL) | MIC [3]: 3.2 µM (≈ 6.51 µg/mL) | MIC [4]: 3.2 µM (≈ 6.51 µg/mL) | MIC [5]: 3.2 µM (≈ 6.51 µg/mL) | MIC [6]: 1.6 µM (≈ 3.26 µg/mL)
Structure (SMILES): CC(=O)N[C@@H](Cc1ccccc1)C(=O)N[C@@H](CCCCN)C(=O)N[C@@H](CCCCN)C(=O)N[C@@H](CC(C)C)C(=O)N[C@@H](CCCCN)C(=O)N[C@@H](CCCCN)C(=O)N[C@@H](CC(C)C)C(=O)N[C@@H](Cc1ccccc1)C(=O)N[C@@H](CO)C(=O)N[C@@H](CCCCN)C(=O)N[C@@H](CC(C)C)C(=O)N[C@@H](CCCCN)C(=O)N[C@@H](CC(N)=O)C(=O)N[C@@H](Cc1c[nH]c2ccccc12)C(=O)N[C@@H](Cc1c[nH]c2ccccc12)C(N)=O [FKKLKKLFSKLKNWW]

MIC [7]: > 512 µM | MIC [8]: ≥ 512 µM | MIC [9]: > 512 µM | MIC [2]: > 512 µM | MIC [3]: > 512 µM | MIC [4]: > 512 µM | MIC [5]: > 512 µM | MIC [6]: > 512 µM
Structure (SMILES): C[C@H](NC(=O)[C@H](C)NC(=O)[C@@H](NC(=O)[C@H](CCCCN)NC(=O)[C@H](C)NC(=O)[C@H](CCCN=C(N)N)NC(=O)[C@H](CCCCN)NC(=O)[C@H](C)NC(=O)[C@H](C)NC(=O)CN)[C@@H](C)O)C(N)=O [GAAKRAKTAA]

MIC [10]: ≥ 200 µM | MIC [2]: 100 µM (≈ 234 µg/mL) | MIC [11]: ≥ 200 µM
Structure (SMILES): CC[C@H](C)[C@H](NC(=O)[C@H](CC(C)C)NC(=O)[C@H](CC(=O)O)NC(=O)[C@H](CO)NC(=O)[C@@H](NC(=O)[C@H](C)NC(=O)[C@H](CCCCN)NC(=O)[C@@H](NC(=O)[C@H](CCCCN)NC(=O)[C@H](Cc1cnc[nH]1)NC(=O)[C@@H]1CCCN1C(=O)[C@@H](NC(=O)[C@H](CC(C)C)NC(=O)[C@@H]1CCCN1C(=O)CNC(=O)[C@@H](NC(=O)[C@H](Cc1ccc(O)cc1)NC(=O)[C@H](CCCCN)NC(=O)[C@H](CCSC)NC(=O)[C@H](Cc1ccccc1)NC(=O)CN)[C@@H](C)CC)[C@@H](C)CC)C(C)C)[C@@H](C)CC)C(N)=O [GFMKYIGPLIPHKVKAISDLI]

MIC [10]: ≥ 50 µM | MIC [2]: 12.5 µM (≈ 29.6 µg/mL) | MIC [11]: 25 µM (≈ 59.2 µg/mL)
Structure (SMILES): CC[C@H](C)[C@H](NC(=O)[C@H](CC(C)C)NC(=O)[C@H](CCCCN)NC(=O)[C@H](CO)NC(=O)[C@@H](NC(=O)[C@H](C)NC(=O)[C@H](CCCCN)NC(=O)[C@@H](NC(=O)[C@H](C)NC(=O)[C@H](Cc1cnc[nH]1)NC(=O)[C@@H]1CCCN1C(=O)[C@@H](NC(=O)[C@H](CC(C)C)NC(=O)[C@@H]1CCCN1C(=O)[C@H](CCCCN)NC(=O)[C@@H](NC(=O)[C@H](Cc1ccc(O)cc1)NC(=O)[C@H](CCCCN)NC(=O)[C@H](CCSC)NC(=O)[C@H](Cc1ccccc1)NC(=O)CN)[C@@H](C)CC)[C@@H](C)CC)C(C)C)[C@@H](C)CC)C(=O)O [GFMKYIKPLIPHAVKAISKLI]

MIC [2]: 128 µM (≈ 257 µg/mL) | MIC (Klebsiella pneumoniae): > 128 µM | MIC [12]: > 128 µM
Structure (SMILES): CC[C@H](C)[C@H](NC(=O)[C@H](Cc1ccc(O)cc1)NC(=O)[C@@H](NC(=O)[C@@H]1CCCN1C(=O)[C@H](CCCN=C(N)N)NC(=O)[C@H](CC(N)=O)NC(=O)[C@H](CC(N)=O)NC(=O)CN)C(C)C)C(=O)N1CCC[C@H]1C(=O)N[C@@H](CCC(N)=O)C(=O)N1CCC[C@H]1C(=O)N[C@@H](CCCN=C(N)N)C(=O)N1CCC[C@H]1C(=O)N[C@@H](Cc1cnc[nH]1)C(=O)N1CCC[C@H]1C(=O)N[C@@H](CCCN=C(N)N)C(=O)N[C@@H](CC(C)C)C(=O)O [GNNRPVYIPQPRPHPRL]

MIC (Bacillus subtilis): 8 µM (≈ 14.1 µg/mL) | MIC (Escherichia coli): 8 µM (≈ 14.1 µg/mL) | MIC (Salmonella typhimurium): 8 µM (≈ 14.1 µg/mL) | MIC (Staphylococcus aureus): 16 µM (≈ 28.2 µg/mL)
Structure (SMILES): CC(C)[C@H](NC(=O)CNC(=O)[C@H](CCCN=C(N)N)NC(=O)[C@@H](NC(=O)[C@@H](NC(=O)[C@@H](NC(=O)[C@H](CCCN=C(N)N)NC(=O)CNC(=O)[C@@H](NC(=O)[C@H](CCCN=C(N)N)NC(=O)[C@@H](NC(=O)[C@@H](NC(=O)[C@@H](NC(=O)CN)C(C)C)C(C)C)C(C)C)C(C)C)C(C)C)C(C)C)C(C)C)C(=O)N[C@@H](CCCN=C(N)N)C(=O)N[C@@H](CCCN=C(N)N)C(N)=O [GVVVRVGRVVVRGVRR]

MIC [7]: 64 µM (≈ 87.5 µg/mL) | MIC [8]: 4 µM (≈ 5.47 µg/mL) | MIC [9]: 64 µM (≈ 87.5 µg/mL) | MIC [2]: 16 µM (≈ 21.9 µg/mL) | MIC [3]: 32 µM (≈ 43.8 µg/mL) | MIC [4]: 8 µM (≈ 10.9 µg/mL) | MIC [5]: 16 µM (≈ 21.9 µg/mL) | MIC [6]: 4 µM (≈ 5.47 µg/mL)
Structure (SMILES): CC[C@H](C)[C@H](NC(=O)[C@H](CCCN=C(N)N)NC(=O)[C@H](CCCCN)NC(=O)[C@H](Cc1ccccc1)NC(=O)[C@H](Cc1c[nH]c2ccccc12)NC(=O)CN)C(=O)N[C@@H](CCCCN)C(=O)N[C@H](C(=O)N[C@@H](Cc1ccccc1)C(=O)N[C@@H](Cc1c[nH]c2ccccc12)C(N)=O)[C@@H](C)O [GWFKRIKTFW]

MIC [13]: > 101 µM | MIC [9]: > 101 µM | MIC (Escherichia coli): 12.6 µM (≈ 16 µg/mL) | MIC [14]: 12.6 µM (≈ 16 µg/mL) | MIC (Klebsiella pneumoniae): 12.6 µM (≈ 16 µg/mL) | MIC (Pseudomonas aeruginosa): 25.3 µM (≈ 32 µg/mL) | MIC [5]: 12.6 µM (≈ 16 µg/mL) | MIC [15]: > 101 µM | MIC (Staphylococcus aureus): 50.6 µM (≈ 64 µg/mL) | MIC [16]: 25.3 µM (≈ 32 µg/mL)
Structure (SMILES): CC(C)[C@H](NC(=O)CNC(=O)[C@@H](N)Cc1cnc[nH]1)C(=O)N[C@@H](CO)C(=O)NCC(=O)N[C@@H](Cc1cnc[nH]1)C(=O)NCC(=O)N[C@@H](CCC(N)=O)C(=O)N[C@@H](Cc1cnc[nH]1)C(=O)NCC(=O)N[C@H](C(=O)N[C@@H](Cc1cnc[nH]1)C(=O)NCC(=O)O)C(C)C [HGVSGHGQHGVHG]

MIC (Bacillus cereus): ≥ 120 µM | MIC (Escherichia coli): > 120 µM
Structure (SMILES): CC[C@H](C)[C@H](NC(=O)CNC(=O)[C@H](CCCN=C(N)N)NC(=O)[C@H](C)NC(=O)[C@H](CCSC)NC(=O)[C@@H]1CCCN1C(=O)[C@H](C)NC(=O)CNC(=O)[C@H](CCC(=O)O)NC(=O)[C@H](CC(C)C)NC(=O)[C@@H]1CCCN1C(=O)[C@H](CC(=O)O)NC(=O)[C@H](Cc1ccccc1)NC(=O)[C@@H](N)CCCCN)C(=O)N[C@H](C(=O)N[C@@H](CC(C)C)C(=O)N[C@@H](CCC(=O)O)C(=O)N[C@@H](CCCCN)C(=O)N[C@H](C(=O)NCC(=O)O)C(C)C)C(C)C [KFDPLEGAPMARGIVLEKVG]

MIC [10]: ≥ 150 µM | MIC [2]: > 150 µM | MIC [11]: ≥ 48 µM
Structure (SMILES): CC[C@H](C)[C@H](NC(=O)[C@H](CCCCN)NC(=O)[C@H](CCCCN)NC(=O)[C@H](C)NC(=O)[C@H](CC(C)C)NC(=O)[C@H](CC(N)=O)NC(=O)[C@@H](NC(=O)[C@H](CC(C)C)NC(=O)[C@@H](NC(=O)CNC(=O)[C@H](CC(C)C)NC(=O)[C@H](Cc1ccccc1)NC(=O)[C@@H](N)CC(N)=O)[C@@H](C)O)[C@@H](C)CC)C(=O)N[C@@H](CCSC)C(N)=O [NFLGTLINLAKKIM]

MIC (Bacillus cereus): ≥ 124 µM | MIC (Escherichia coli): > 124 µM
Structure (SMILES): CC[C@H](C)[C@H](NC(=O)[C@@H](NC(=O)[C@H](C)NC(=O)[C@@H]1CCCN1C(=O)[C@H](Cc1ccccc1)NC(=O)[C@@H](NC(=O)[C@H](CCCCN)NC(=O)[C@H](CO)NC(=O)[C@H](C)NC(=O)[C@@H](NC(=O)[C@H](CCCN=C(N)N)NC(=O)CNC(=O)[C@@H](NC(=O)[C@@H](NC(=O)[C@@H]1CCCN1)C(C)C)C(C)C)C(C)C)C(C)C)C(C)C)C(=O)NCC(=O)N[C@@H](CC(C)C)C(=O)N[C@H](C(=O)N[C@@H](CCCCN)C(=O)N[C@@H](CCCCN)C(=O)O)C(C)C [PVVGRVASKVFPAVIGLVKK]

MIC (Bacillus cereus): ≥ 116 µM | MIC (Escherichia coli): > 116 µM
Structure (SMILES): CC[C@H](C)[C@H](NC(=O)[C@H](Cc1ccc(O)cc1)NC(=O)[C@@H](NC(=O)[C@@H](NC(=O)[C@H](C)NC(=O)[C@@H]1CCCN1C(=O)[C@@H](NC(=O)[C@H](CO)NC(=O)[C@H](CS)NC(=O)[C@H](CCCCN)NC(=O)[C@@H](NC(=O)[C@H](CCCCN)NC(=O)[C@@H](N)C(C)C)[C@@H](C)O)C(C)C)C(C)C)C(C)C)C(=O)N[C@@H](CC(C)C)C(=O)N[C@H](C(=O)N[C@@H](CCCCN)C(=O)N[C@H](C(=O)N[C@@H](Cc1ccccc1)C(=O)N[C@@H](CCCCN)C(=O)N[C@@H](CO)C(=O)O)[C@@H](C)O)C(C)C [VKTKCSVPAVVYILVKTFKS]

MIC (Bacillus subtilis): ≥ 200 µM | MIC [17]: ≥ 50 µM | MIC [4]: > 200 µM | MIC [5]: > 200 µM
Structure (SMILES): CC[C@H](C)[C@H](NC(=O)[C@H](Cc1ccccc1)NC(=O)[C@@H](NC(=O)[C@H](CC(C)C)NC(=O)[C@H](CCCN=C(N)N)NC(=O)[C@H](CCCCN)NC(=O)[C@H](CCCN=C(N)N)NC(=O)[C@H](CCCCN)NC(=O)[C@H](CC(C)C)NC(=O)[C@H](CC(C)C)NC(=O)[C@@H](NC(=O)[C@@H](N)Cc1ccc(O)cc1)C(C)C)[C@@H](C)CC)C(=O)O [YVLLKRKRLIFI]
